Structures are written as SMILES.

In one data set the test system is VSV. The note with it: mouse, in vivo; cited from earlier work.
Data set [1] has as its target T1, full length RNase L activated by 2-5A (Homo sapiens, UniProt Q05823).
T1 sequence (Q05823 1-741): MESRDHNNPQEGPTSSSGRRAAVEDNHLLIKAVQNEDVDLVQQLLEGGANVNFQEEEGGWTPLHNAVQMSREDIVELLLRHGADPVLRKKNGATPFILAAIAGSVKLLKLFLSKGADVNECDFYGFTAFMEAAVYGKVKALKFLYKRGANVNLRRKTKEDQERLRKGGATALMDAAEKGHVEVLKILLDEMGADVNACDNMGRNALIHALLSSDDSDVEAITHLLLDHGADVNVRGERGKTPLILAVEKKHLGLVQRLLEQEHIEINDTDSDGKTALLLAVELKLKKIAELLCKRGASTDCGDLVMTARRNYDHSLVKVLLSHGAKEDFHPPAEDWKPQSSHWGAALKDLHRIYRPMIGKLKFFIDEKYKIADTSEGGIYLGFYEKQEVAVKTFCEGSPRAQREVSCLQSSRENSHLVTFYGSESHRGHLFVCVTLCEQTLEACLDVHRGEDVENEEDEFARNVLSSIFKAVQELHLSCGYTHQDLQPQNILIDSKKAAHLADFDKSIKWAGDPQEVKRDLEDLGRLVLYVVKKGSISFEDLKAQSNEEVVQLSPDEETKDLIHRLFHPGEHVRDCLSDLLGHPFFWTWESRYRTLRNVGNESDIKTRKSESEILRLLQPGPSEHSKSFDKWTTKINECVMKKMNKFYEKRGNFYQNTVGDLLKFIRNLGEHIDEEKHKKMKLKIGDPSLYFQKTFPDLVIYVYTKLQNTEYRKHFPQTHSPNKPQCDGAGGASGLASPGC
As to the kind of experiment: biochemical.

The conditions of data set [2]: in vivo; cited from earlier work.
The target in data set [3] is T2, constitutively active, truncated mutant RNase L(NΔ335) (Homo sapiens, UniProt Q05823).
T2 sequence (Q05823 336-741 limits assumed): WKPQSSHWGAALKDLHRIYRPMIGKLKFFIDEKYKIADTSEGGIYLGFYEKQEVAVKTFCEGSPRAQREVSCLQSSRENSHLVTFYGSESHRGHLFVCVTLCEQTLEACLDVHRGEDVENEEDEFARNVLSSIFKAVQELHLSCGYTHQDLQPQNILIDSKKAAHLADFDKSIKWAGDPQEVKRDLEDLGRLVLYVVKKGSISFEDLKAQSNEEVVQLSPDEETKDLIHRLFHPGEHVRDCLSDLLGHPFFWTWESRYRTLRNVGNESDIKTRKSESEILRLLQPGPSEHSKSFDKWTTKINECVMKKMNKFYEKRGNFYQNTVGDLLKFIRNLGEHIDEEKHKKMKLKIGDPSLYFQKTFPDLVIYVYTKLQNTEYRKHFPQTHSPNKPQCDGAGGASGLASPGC
As to the kind of experiment: biochemical.

Data set [4] in a line: in vitro. The note with it: human.
Data set [5] in a line: in vitro. The note with it: human, mouse, reduction in cell viability.
Data set [6] is described as follows: in vitro. The note with it: human. The source holds these as a separate data set.

`O=P1(N(CCCl)CCCl)NCCCO1` (stereo not shown) [CPA, cyclophosphamide]: the “induction of antiviral antibodies against VSV challenge” value in the data set with VSV is reported as “completely suppressed induction of antiviral antibodies”.

On to `CCN(CC)CCNC(=O)c1c(C)[nH]c(/C=C2\C(=O)Nc3ccc(F)cc32)c1C` [sunitinib], for which the IC50 in data set [1] and in data set [3] was 1400 nM in each case. Also, the serum concentrations entry in data set [2] is on record as “equivalent to those of patients”. Further, the cytotoxicity in the data set “in vitro [4]” was 60%; in the data set “in vitro [5]”, around 20%; in “in vitro [6]” it was 60%.

Values taken from patent US20130071432A1 (priority 2011, published 2013).
